Values of other authors as cited in patent US8709498B2, “Method of stimulating tissue healing” (priority 2001, dated 2014).
Where two headings read alike, the source gives them in different places.

Tests used:
[1] = system: human fibroblasts
[2] = system: human endothelial cells
[3] = system: endothelial cells of the human umbilical vein; conditions: HOCl 5 nM/1.2×10^5 cells, in vitro; no cell death
[4] = system: polymorphonuclear neutrophils; conditions: read-out: IC50, chemiluminescence decrease
[5] = system: mouse macrophages; conditions: abolished by nitrite excess
[6] = system: human skin fibroblasts; conditions: human skin fibroblasts in vitro
[7] = system: polymorphonuclear neutrophils; conditions: HOCl 250 μM
[8] = system: endothelial cells; conditions: in vitro, (HOCl)=35 μM
[9] = system: human fibroblasts; remark: listed apart in the source
[10] = system: human macrophages, fibroblasts and keratinocytes
[11] = system: macrophages; conditions: (NaOCl)=1.0075 mM, after two hours of contact in vitro
[12] = system: rat macrophage like-cells RAW 264.7
[13] = system: macrophages
[14] = system: macrophages or macrophage-line cells
[15] = not given; remark: listed apart in the source
[16] = system: IL-1α; conditions: all stimulation levels
[17] = system: rat RAW264.7 cells; conditions: for Km: read-out: Km of take-up
[18] = system: mouse dendritic cells; conditions: incubated 24 hours
[19] = system: T cells
[20] = system: TNF-α; conditions: dose-dependent
[21] = system: rat DCs
[22] = system: IL-8; conditions: rheumatoid arthritis fibroblast-like synoviocytes
[23] = system: IL-6; conditions: rheumatoid arthritis fibroblast-like synoviocytes
[24] = system: E. Coli
[25] = system: mouse T cells
[26] = system: human synoviocytes-like fibroblastes; conditions: (TauCl)=400-500 μM
[27] = system: AP-1

SMILES: OCl [HOCl, hypochlorous acid]
- HOCl molecules taken up within the first 10 minutes [1]: ~80%
- HOCl concentration above which cell toxicity increases progressively ([2]; exposition time-dependent): > 25 µM
- HOCl concentration that is not toxic ([2]; human endothelial cells in vitro): ≤ 25 µM
- HOCl concentration with cell contractions, rounding and loss of adherence ([2]; rounded within 10 minutes, majority lost adherence after three hours): 50 µM
- effect on cell growth [3]: temporary stop of cell growth
- IC50 [4]: 100 µM
- HOCl concentration above which cell death increases significantly [5]: > 0.125 mM
- concentration that does not alter viability or induce cytotoxicity or cell apoptose [6]: < 50 µM
- effect on hydrogen peroxide production [7]: inhibits
- HOCl molecules taken up within 15 minutes [8]: 100%
- HOCl molecules taken up within ½ minute [8]: 50%

SMILES: OCl [NaOCl, sodium hypochlorite]
- NaOCl concentration at which cell morbidity is complete [9]: 16.8 mM
- cells alive ([9]; 67,165 μmol/l<(NaOCl)<671,655 μmol/l): 100%
- NaOCl concentration of highest efficiency in stimulating growth and cell proliferation ([9]; FCS presence (2%)): 33.6 µM
- NaOCl concentration at which viability is not altered and growth and proliferation are stimulated ([9]; FCS presence (2%), 24 hours of exposure): < 672 µM
- NaOCl concentration at which cell viability is altered ([9]; observed for 24 hours after a 15-minute exposition): ≥ 1,0075 mM
- NaOCl concentration at which toxicity can be neutralized by an antioxidant addition [10]: < 3.358 mM
- NaOCl concentration at which toxicity is very low with an antioxidant presence [10]: < 1.679 mM
- NaOCl concentration with high toxicity [10]: > 6.7165 mM
- NaOCl concentration at which toxicity cannot be neutralized by antioxidants ([10]; antioxidants at physiological concentrations): 13.433 mM
- stability (levels below 5 g/l of available chlorine): under 2 weeks
- stability of NaOCl oxidative activity (pH value between 10 and 10.5 (EP 0471129 A1)): greater than 24 months
- NaOCl stability (temperature increased to 37° C.): below 24 hours
- cells alive [11]: 95%
- cells that keep their adherence to substrates [11]: 40%
- NaOCl concentration at which cell viability is highly altered (irreversible) [12]: 1 mM

SMILES: O=C(O)[C@H](CO)NCl [SerCl, Serine N-chloramine]
- inhibition of nitric oxide generation ([13]; (SerCl)=300 μM, after 24 hours): 22%
- inhibition of nitric oxide generation ([13]; (SerCl)=300 μM, immediately after its preparation): 85%

SMILES: O=S(=O)(O)CCNCl [TauCl, taurine N-chloramine]
- TauCl concentration that alters cell viability [14]: > 1 mM
- oxidative activity decrease ([15]; physiological pH (7.4), 37° C.): below 5 %/hour
- effect on IL-1α production [16]: no effect
- Vmax of take-up ([17]; LPS-stimulated macrophages): 82.6 pmol/min/10^6 cells
- Km ([17]; LPS-stimulated macrophages): 45.9 µM
- Vmax of take-up ([17]; relaxed rat RAW264.7 cells): 51.3 pmol/min/10^6 cells
- Km ([17]; relaxed rat RAW264.7 cells): 23.3 µM
- TauCl concentration above which cell viability decreases significantly [18]: > 0.5 mM
- release of IL-2 and IL-6 [19]: inhibits
- IC50 [4]: 550 µM
- IC60, TNF-α transcriptional velocity [20]: 400 µM
- concentration that does not alter viability or induce cytotoxicity or cell apoptose [6]: ≤ 100 µM
- TNF-α and ROS generation ([21]; (TauCl)=250 μM): not inhibited
- production of IL-10, IL-12, PGE2 and nitric oxide ([21]; (TauCl)=250 μM): inhibits
- release of ROS, nitric oxide, PGE2, TNF-α, IL-6, IL-10 and IL-12 ([21]; (TauCl)=500 μM, two hours pre-incubated): almost completely inhibits
- IC50 [22]: ~450 µM
- IC50 [23]: ~225 µM
- inhibition of nitric oxide generation ([13]; 100 µM): 8-22%
- inhibition of nitric oxide generation ([13]; 600 µM): 98%
- bactericidal activity [24]: very low bactericidal activity
- TauCl concentration at which cell viability (mitochondrial activity) is not altered [25]: 30 to 300 µM
- TauCl concentration that is cytotoxic [25]: 300 µM
- effect on hydrogen peroxide production [7]: no effect
- viability preserved [26]: ≥ 95%
- AP-1 DNA-bonding ([27]; (TauCl)=250 μM): without altering
- DNA-bonding activity of AP-1 ([27]; TauCl 500 μM): decreases

SMILES: O=S(=O)([O-])CCNCl.[Na+] [taurine N-chloramine sodium salt]
- stability decrease in 15 days ([15]; aqueous solution, pH=8.3): around 30%
- stability decrease in 65 days ([15]; aqueous solution, pH=8.3): around 61%
- stability decrease per day after the first 15 days ([15]; aqueous solution, pH=8.3): around 0.71 % per day

SMILES: NCCS(=O)(=O)O [taurine]
- Vmax of take-up ([17]; LPS-stimulated macrophages): 116.3 pmol/min/10^6 cells
- Km ([17]; LPS-stimulated macrophages): 17.3 µM
- Vmax of take-up ([17]; relaxed rat RAW264.7 cells): 90.9 pmol/min/10^6 cells
- Km ([17]; relaxed rat RAW264.7 cells): 28.1 µM
- effect on nitric oxide generation ([13]; taurine alone): without effect
